Assay results: US4945090A, “Phenoxy-substituted beta-carboline derivatives, their production and their use as drugs” (Schering Aktiengesellschaft, priority 1985, dated 1990)
Values after ≈ are worked out from the molar mass of the structure shown.

Key:
benzodiazepine receptors [1] = test: displacement of 3H-flunitrazepam from benzodiazepine receptors in vitro (rat forebrain membranes); conditions: 50% displacement of specific 3H-flunitrazepam binding (1.0 nM, 0° C.), brain membranes of rats, pH 7.1
[2] = test system: spasms induced by pentylenetrazole (pentazol); test: PTZ spasms antagonism (protection from pentylenetrazole-induced spasms and death); set-up: species or system mice; conditions: Mus musculus, ip, 0.5 h; protects 50% of animals from spasms and death; test substance i.p. 15-30 minutes before pentazol 150 mg/kg s.c.; Litchfield and Wilcoxon; read-out: PTZ (ED50) mg/kg in vivo
Method: The compounds according to the invention especially show anxiolytic and anticonvulsive effectiveness. […] Pentazol is administered subcutaneously in an amount of 150 mg/kg as hydrochloric acid solution (pH 2-3) 15-30 minutes after the intraperitoneal application of the test substance. This amount induces clonic and tonic spasms, which lead to death in untreated animals. The number of mice which show spasms and the number of them that died 30 minutes after pentazol are recorded (PTZ spasms antagonism).
The ED50 values indicated in the table were determined according to the method of Litchfield and Wilcoxon (J. Pharmacol. exp. Ther. 96 (1949) […]) as the amount of antagonistically acting substance which protects 50% of the animals from spasms and death.

benzodiazepine receptors [3] = test: displacement of 3H-flunitrazepam from benzodiazepine receptors in live brain, in vivo; conditions: reduction of specific flunitrazepam binding in live brain to 50% of control; normally intraperitoneal; 3H-flunitrazepam i.v. after 15 minutes, forebrain removed after another 20 minutes

SMILES | IC50 (ng/ml) in vitro (benzodiazepine receptors [1]) [ng/mL] | ED50 [2] [mg/kg] | ED50 (mg/kg) in vivo (benzodiazepine receptors [3]) [mg/kg]
CCOC(=O)c1ncc2[nH]c3cccc(Oc4ccc(Cl)cc4Cl)c3c2c1COC [5-(2,4-dichlorophenoxy)-4-methoxymethyl-beta-carboline-3-carboxylic acid ethyl ester] | 2.9 (≈ 6.51 nM) | 4 | 3.2
COCc1c(C(=O)OC(C)C)ncc2[nH]c3cccc(Oc4ccccc4Cl)c3c12 [5-(2-Cl-Phenoxy), CH2 OCH3, COOCH(CH3)2] | 2.6 (≈ 6.12 nM) | 4 | 19
CCc1noc(-c2ncc3[nH]c4cccc(Oc5ccccc5Cl)c4c3c2COC)n1 [5-(2-Cl-Phenoxy), CH2 OCH3, drawing 10] | 3.1 (≈ 7.13 nM) | 0.8 | 11
CCOC(=O)c1ncc2[nH]c3cccc(Oc4ccccc4)c3c2c1COC [5-Phenoxy, CH2 OCH3, COOEt, 5-Phenoxy-4-methoxymethyl-beta-carboline-3-carboxylic acid ethyl ester] | 0.3 (≈ 0.797 nM) | 18 | 0.4
CCc1noc(-c2ncc3[nH]c4cccc(Oc5ccccc5)c4c3c2COC)n1 [5-Phenoxy, CH2 OCH3, drawing 12, 5-phenoxy-4-methoxymethyl-3-(3-ethyl-1,2,4-oxadiazol-5-yl)-beta carboline] | 0.6 (≈ 1.5 nM) | 0.1 | 0.3
CCOC(=O)c1ncc2[nH]c3cccc(Oc4ccccc4)c3c2c1C [5-Phenoxy, CH3, COOC2 H5, 5-phenoxy-4-methyl-beta-carboline-3-carboxylic acid ethyl ester, reference compound] | 2.0 (≈ 5.77 nM) | > 30 | 2.8
CCc1noc(-c2ncc3[nH]c4cccc(Oc5ccccc5)c4c3c2C)n1 [5-Phenoxy, CH3, drawing 13, 5-phenoxy-4-methyl-3-(3-ethyl-1,2,4-oxadizaol-5-yl)-beta-carboline] | 4.3 (≈ 11.6 nM) | 2 | 3.9
COCc1c(C(=O)OC(C)C)ncc2[nH]c3ccc(Oc4cccc(Cl)c4C#N)cc3c12 [6-(2-cyano-3-chlorophenoxy)-4-methoxymethyl-beta-carboline-3-carboxylic acid isopropyl ester] | 0.67 (≈ 1.49 nM) | 1 | 3.0
COCc1c(C(=O)OC(C)C)ncc2[nH]c3ccc(Oc4ccccc4C#N)cc3c12 [6-(2-cyanophenoxy)-4-methoxymethyl-beta-carboline-3-carboxylic acid isopropyl ester] | 0.29 (≈ 0.698 nM) | 4 | 3.8
COCc1c(C(=O)OC(C)C)ncc2[nH]c3ccc(Oc4ccccc4[N+](=O)[O-])cc3c12 [6-(2-nitrophenoxy)-4-methoxymethyl-beta-carboline-3-carboxylic acid isopropyl ester] | 0.33 (≈ 0.758 nM) | 13 | 1.8
CCc1noc(-c2ncc3[nH]c4ccc(Oc5ccc(C(C)=O)cc5)cc4c3c2COC)n1 [6-(4-acetylphenoxy), CH2 OCH3, drawing 11, 6(4-acetylphenoxy)-4-methoxymethyl-3-(3-ethyl-1,2,4-oxadizaol-5-yl)-beta-carboline] | 0.45 (≈ 1.02 nM) | 0.3 | 7.7
CCc1noc(-c2ncc3[nH]c4ccc(Oc5ccccc5)cc4c3c2C)n1 [6-Phenoxy, CH3, drawing 14, 6-phenoxy-4-methyl-3-(3-ethyl-1,2,4-oxadiazol-5-yl)-beta carboline] | 3.2 (≈ 8.64 nM) | 2.4 | 2.6
